Assays:
Spodoptera frugiperda = assay: Lepidoptera artificial diet assay against Spodoptera frugiperda (pupation and mortality); type: in vivo; settings: unformulated SB-P-70; 1×10^−4 M in diet; L1 larvae; FIG. 8, after 168 hours; compared to negative control vehicle and DDT
Description: Frontier Lepidoptera artificial diet was made up by preparing agar at 1% and then mixing it with artificial diet powder. Peptide solution was aliquoted in 10 cells and diet poured straight onto it. The final concentration of the peptide was 1×10^−4 M, and each peptide was aliquoted in 10 cells. Once the diet solidified and cooled down, one L1 larvae was infested in each cell. The trays were sealed with heat and let larva were allowed to develop for 168 hrs. Finally, pupation and mortality were scored for. Lepidoptera artificial diet assays were performed with SB-P-70, and compared to a negative control vehicle and the insecticide dichlorodiphenyltrichloroethane (DDT).

Plutella xylostella = assay: Leaf dip assay testing against Plutella xylostella (mortality); type: in vivo; settings: unformulated SB-P-70; FIG. 6, after 96 hours; compared to negative control vehicle and Chlorantraniliprole
Description: The assay was carried out based on IRAC susceptibility test method 019 (https://irac-online.org/methods/aphids-adultnymphs/). Fill a small 4 cm wide 3 cm high dish with a 1% agar treatment solution of the active chemical or control (ensuring 1 cm gap between the agar and the lid) and leave to set. Dip a 2.5 cm leaf disc into 3 ml of treatment solution allowing the treatment to coat the leaf. Leave the disc to dry for 1 hour and place onto the set agar. Place insects (Plutella xylostella) onto each of the leaf discs. Each unit is sealed with a close-fitting, ventilated lid. Place the agar dishes in a small plastic tray lined with moist tissue paper and ensure the water trays in the bottom of the incubator are filled with clean water and place within the incubator. An assessment of mortality is made at 72, 96 and 120 hours. Leaf dip assays were performed with SB-P-70, and compared to a negative control vehicle and a current commercial insecticide Chlorantraniliprole. The activity of SB-P-70 is shown in FIG. 6; SB-P-70 has good activity whilst being eco-friendly and targeted to specific pests unlike broad spectrum chemical insecticides such as Chlorantraniliprole.

In the case of “[Hy]-KVKFSAWG-[NH2] (H-KVKFSAWG-NH2) [SB-P-70]”, the “activity against Spodoptera frugiperda (pupation and mortality, artificial diet assay)” value (Spodoptera frugiperda) is reported as “much higher activity” and the “activity against Plutella xylostella (mortality, leaf dip assay)” value (Plutella xylostella) is reported as “good activity”.

From patent US20240147995A1, “INSECT NEUROPEPTIDES 5” (Solasta Bio Limited, priority 2022, published 2024)
